# “Also recorded” adds a separate entry of the source. Where two headings read alike, the source gives them in different places.
# Key:
# influenza B = settings: 10 μM riboflavin; 425 nm light 30 J/cm^2; FIG. 6F
# MERS-CoV = assay type: cell-based; settings: 1 μM riboflavin with various amounts of ascorbate in artificial saliva; 425 nm light 15 J/cm^2; FIG. 4B
# influenza A = assay type: cell-based; settings: for reduction in viral loads of influenza A: 425 nm light 30 J/cm^2
# human rhinovirus 1B = assay type: cell-based
# [1] = system: human coronavirus OC43 (HCoV-OC43); experiment: 425 nm light inhibition of HCoV-OC43 in the presence of vitamins in artificial saliva, virus titer (PFU/mL); assay type: cell-based; settings: 10 μM RFN in artificial saliva, doses as low as 7.5 J/cm^2 (up to 45 J/cm^2), FIG. 1B
# Source text: FIGS. 1A to 1D are provided in the context of HCoV-OC43, which is generally known as one of the viruses associated with the common cold. FIG. 1A is a chart illustrating an experimental control where light treatments were applied to HCoV-OC43 samples in the absence of any vitamins. […] A first sample included HCoV-OC43 in only its corresponding media, and the other two samples further included different artificial saliva sources (labeled as Saliva 1 and Saliva 2 in FIG. 1A).
# FIG. 1B is a chart illustrating light treatments on HCoV-OC43 samples where various amounts of riboflavin (abbreviated as RFN) were diluted in a same type of artificial saliva and added to the HCoV-OC43 samples.
# FIG. 1C is a chart illustrating light treatments on HCoV-OC43 samples where various amounts of ascorbate (abbreviated as AA) and 10 μM of RFN were diluted in a same type of artificial saliva and added to the HCoV-OC43 samples. […] The constant amount of RFN (10 μM) was selected based on the improvements illustrated in FIG. 1B.
# FIG. 1D is a chart illustrating light treatments on HCoV-OC43 samples where various amounts of ascorbate were diluted in a same type of artificial saliva and added to the HCoV-OC43 samples in the absence of riboflavin.
smiles,measurement,setting,value
Cc1cc2nc3c(=O)[nH]c(=O)nc-3n(C[C@H](O)[C@H](O)[C@H](O)CO)c2cc1C [riboflavin],reduction in viral loads of influenza B,influenza B,dramatic reduction
same,reductions in viral loads of MERS-CoV,MERS-CoV,greater than 99.999%
same,inhibition in viral load of influenza A by riboflavin dosing alone,"influenza A; 0 J/cm^2 (no light), 0.1-10 μM riboflavin, FIG. 6E",some inhibition
same,reduction in viral loads of influenza A,"influenza A; 1 μM riboflavin, FIG. 6E",some reduction
same,reduction in viral loads of influenza A,"influenza A; 10 μM riboflavin, FIG. 6E",substantial reduction; also recorded: dramatic reduction
same,change in viral loads of influenza A,"influenza A; 10 μM riboflavin, 425 nm light 32 J/cm^2, FIG. 6D",dramatic decreases
same,reduction in viral loads of human rhinovirus 1B,"human rhinovirus 1B; 10 μM riboflavin with various ascorbate in Saliva 2, 425 nm light 32 J/cm^2, FIG. 5B",some reduction
same,influence on viral loads of human rhinovirus 1B,"human rhinovirus 1B; 0.1, 1, 10 μM RFN in Saliva 1, 425 nm light up to 30 J/cm^2, FIG. 5A",little to no influence
same,change in HCoV-OC43 viral load compared with the 0 μM RFN sample,[1],significant decreases
